pEC50: −log10 of the molar value. In brackets after ≈: the same amount, converted by molar mass. One block for each compound: values may come before it. Activity calls are given as the source filed them. No cut-off for these calls is given here.
Legend:
[1] = tested on: Stimulator of interferon genes protein (Homo sapiens), Q86WV6 [UNDEFINED MUTATION]; experiment: Binding affinity to recombinant human STING H232 variant expressed in Escherichia coli BL21 (DE3) assessed as thermal stabilization by measuring change in melting temperature at 2 mM incubated for 30 mins by SYPRO orange dye based differential scanning fluorimetry assay
Sequence of Stimulator of interferon genes protein (Homo sapiens), Q86WV6 [UNDEFINED MUTATION] (Q86WV6 whole entry, looked up, stated change not applied): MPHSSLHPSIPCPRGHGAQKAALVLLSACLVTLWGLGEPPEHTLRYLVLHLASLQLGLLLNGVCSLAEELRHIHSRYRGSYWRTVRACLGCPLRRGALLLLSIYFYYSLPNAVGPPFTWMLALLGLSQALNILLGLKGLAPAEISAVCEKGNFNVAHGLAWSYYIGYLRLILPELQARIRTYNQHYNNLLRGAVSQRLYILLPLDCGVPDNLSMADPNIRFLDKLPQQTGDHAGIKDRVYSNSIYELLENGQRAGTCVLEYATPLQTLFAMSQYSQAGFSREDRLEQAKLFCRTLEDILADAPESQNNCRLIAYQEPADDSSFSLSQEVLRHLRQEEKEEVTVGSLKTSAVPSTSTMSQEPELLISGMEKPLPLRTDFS

[2] = AUC (0 to infinity) in Sprague-Dawley rat at 5 mg/kg, iv measured for 1440 mins by LC-MS/MS analysis; format: ADME, organism-based; design: dose 5 mg/kg, time 1440 min, route iv; conditions: in vivo
[3] = target: hERG (Homo sapiens, UniProt Q12809); experiment: Inhibition of hERG expressed in HEK293 cells at 10 uM incubated for 5 mins by QPatch automated patch-clamp technique relative to control; format: toxicity, cell-based; conditions: HEK293 cells that express hERG
Sequence of hERG (Q12809 whole entry): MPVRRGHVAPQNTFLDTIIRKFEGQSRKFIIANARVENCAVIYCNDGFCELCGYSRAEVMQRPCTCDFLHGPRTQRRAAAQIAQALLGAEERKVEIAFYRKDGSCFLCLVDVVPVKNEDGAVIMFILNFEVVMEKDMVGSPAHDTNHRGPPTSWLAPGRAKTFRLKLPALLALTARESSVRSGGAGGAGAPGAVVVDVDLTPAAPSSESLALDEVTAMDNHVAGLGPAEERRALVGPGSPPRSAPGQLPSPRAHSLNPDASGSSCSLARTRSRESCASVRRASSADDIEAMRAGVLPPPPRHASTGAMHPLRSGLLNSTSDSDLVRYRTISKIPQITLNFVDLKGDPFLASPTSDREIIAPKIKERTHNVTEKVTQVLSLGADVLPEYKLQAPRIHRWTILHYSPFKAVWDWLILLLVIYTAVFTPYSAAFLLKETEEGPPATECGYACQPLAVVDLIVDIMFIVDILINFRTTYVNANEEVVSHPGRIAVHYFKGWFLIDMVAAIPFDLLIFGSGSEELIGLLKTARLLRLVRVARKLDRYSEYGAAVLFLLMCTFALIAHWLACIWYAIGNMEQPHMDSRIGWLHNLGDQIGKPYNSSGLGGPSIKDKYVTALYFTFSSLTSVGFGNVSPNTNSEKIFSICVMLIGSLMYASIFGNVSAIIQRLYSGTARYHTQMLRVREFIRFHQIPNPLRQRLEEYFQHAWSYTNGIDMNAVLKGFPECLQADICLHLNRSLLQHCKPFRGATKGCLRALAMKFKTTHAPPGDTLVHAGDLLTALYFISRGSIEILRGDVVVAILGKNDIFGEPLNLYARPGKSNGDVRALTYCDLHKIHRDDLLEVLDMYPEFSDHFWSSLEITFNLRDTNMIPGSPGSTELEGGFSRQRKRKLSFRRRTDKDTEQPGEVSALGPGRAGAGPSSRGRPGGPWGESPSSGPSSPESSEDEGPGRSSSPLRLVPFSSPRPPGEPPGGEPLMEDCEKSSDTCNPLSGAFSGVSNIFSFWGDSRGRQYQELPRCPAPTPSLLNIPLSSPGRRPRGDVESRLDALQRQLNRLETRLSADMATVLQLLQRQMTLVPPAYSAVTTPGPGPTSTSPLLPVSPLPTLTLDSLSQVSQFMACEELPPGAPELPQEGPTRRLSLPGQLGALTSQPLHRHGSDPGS

[4] = Clearance in Sprague-Dawley rat at 5 mg/kg, iv measured for 1440 mins by LC-MS/MS analysis; format: ADME, organism-based; conditions: in vivo
[5] = Lipophilicity, logP of compound by RP-HPLC analysis; format: physicochemical
[6] = Volume of distribution at steady state in Sprague-Dawley rat at 5 mg/kg, iv measured for 1440 mins by LC-MS/MS analysis; format: ADME, organism-based; conditions: in vivo, read-out: Vdss
[7] = Half life in Sprague-Dawley rat at 50 mg/kg, po measured for 1440 mins by LC-MS/MS analysis; format: ADME, organism-based; conditions: in vivo
[8] = Cmax in Sprague-Dawley rat at 50 mg/kg, po measured for 1440 mins by LC-MS/MS analysis; format: ADME, organism-based; design: time 1440 min, dose 50 mg/kg, route po; conditions: in vivo
[9] = tested on: Stimulator of interferon genes protein (Homo sapiens), Q86WV6 [UNDEFINED MUTATION]; experiment: Binding affinity to recombinant human STING R232 variant expressed in Escherichia coli BL21 (DE3) assessed as thermal stabilization by measuring change in melting temperature at 0.1 mM incubated for 30 mins by SYPRO orange dye based differential scanning fluorimetry assay
[10] = Stability in human plasma assessed as parent compound remaining at 1 uM incubated for 24 hrs in presence of NADPH by LC-MS/MS analysis; format: ADME, cell-free; conditions: read-out: Stability
[11] = Oral bioavailability in Sprague-Dawley rat at 50 mg/kg measured for 1440 mins by LC-MS/MS analysis; format: ADME, organism-based; conditions: in vivo
[12] = Solubility of compound in PBS buffer at pH 7.4 at 3 mg incubated for 24 hrs under shaking condition by RP-HPLC analysis; format: physicochemical
[13] = Protein binding in plasma (unknown origin) assessed as unbound fraction at 2 uM incubated for 4 hrs under shaking condition by rapid equilibrium dialysis method; format: ADME, cell-free
[14] = AUC (0 to infinity) in Sprague-Dawley rat at 50 mg/kg, po measured for 1440 mins by LC-MS/MS analysis; format: ADME, organism-based; design: time 1440 min, dose 50 mg/kg, route po; conditions: in vivo
[15] = Volume of distribution at steady state in Sprague-Dawley rat at 50 mg/kg, po measured for 1440 mins by LC-MS/MS analysis; format: ADME, organism-based; conditions: in vivo, 24 h
[16] = Permeability of the compound in PBS buffer incubated for 5 hrs by PAMPA-based LC-MS/MS analysis; format: ADME; conditions: read-out: permeability
[17] = Clearance in Sprague-Dawley rat at 50 mg/kg, po measured for 1440 mins by LC-MS/MS analysis; format: ADME, organism-based; conditions: in vivo
[18] = tested on: 4T1; experiment: Antitumor activity against mouse 4T1 cells implanted in naive BALB/c mouse assessed as increase in Ki67-positive CD4 T cells in tumor at 80 mg/kg, po administered once every 5 days by FACS analysis (reference value: 4.4%); format: functional; conditions: time 5 day
[19] = target: CYP3A4 (Homo sapiens, UniProt P08684); experiment: Inhibition of recombinant CYP3A4 (unknown origin) using midazolam as substrate assessed as reduction in substrate hydroxylation at 10 uM incubated for 5 mins in presence of NADPH by LC-MS/MS analysis relative to control; format: ADME; conditions: recombinant CYP3A4, probe midazolam
Sequence of CYP3A4 (P08684 whole entry): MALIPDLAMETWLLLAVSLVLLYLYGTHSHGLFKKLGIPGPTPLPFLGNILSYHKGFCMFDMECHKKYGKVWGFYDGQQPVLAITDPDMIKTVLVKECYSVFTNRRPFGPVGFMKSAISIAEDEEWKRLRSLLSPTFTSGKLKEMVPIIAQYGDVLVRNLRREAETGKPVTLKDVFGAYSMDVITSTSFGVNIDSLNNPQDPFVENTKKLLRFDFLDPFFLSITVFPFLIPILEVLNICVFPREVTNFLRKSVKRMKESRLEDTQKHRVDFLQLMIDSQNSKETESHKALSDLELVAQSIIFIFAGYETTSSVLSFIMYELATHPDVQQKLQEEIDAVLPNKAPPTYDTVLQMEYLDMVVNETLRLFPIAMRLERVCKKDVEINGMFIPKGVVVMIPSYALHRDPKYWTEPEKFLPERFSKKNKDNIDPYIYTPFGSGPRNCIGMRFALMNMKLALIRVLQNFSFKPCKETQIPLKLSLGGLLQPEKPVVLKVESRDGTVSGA

[20] = Half life in Sprague-Dawley rat at 5 mg/kg, iv measured for 1440 mins by LC-MS/MS analysis; format: ADME, organism-based; conditions: in vivo
[21] = Stability in rat liver microsomes assessed as parent compound remaining at 1 uM incubated for 2 hrs in presence of NADPH by LC-MS/MS analysis; format: ADME, Microsome; conditions: read-out: Stability
[22] = tested on: Stimulator of interferon genes protein (Homo sapiens), Q86WV6 [UNDEFINED MUTATION]; experiment: Binding affinity to recombinant human STING AQ variant expressed in Escherichia coli BL21 (DE3) assessed as thermal stabilization by measuring change in melting temperature at 0.1 mM incubated for 30 mins by SYPRO orange dye based differential scanning fluorimetry assay
[23] = Aqueous solubility of compound at 3 mg incubated for 24 hrs under shaking condition by RP-HPLC analysis; format: physicochemical; conditions: water
[24] = tested on: 4T1; experiment: Antitumor activity against mouse 4T1 cells implanted in naive BALB/c mouse assessed as increase in Ki67-positive CD8 T cells in tumor at 80 mg/kg, po administered once every 5 days by FACS analysis (reference value: 14%); format: functional; conditions: time 5 day
[25] = target: T1, Stimulator of interferon genes protein (Homo sapiens, UniProt Q86WV6); experiment: Agonist activity at STING in human THP-1 cells harboring IRF-inducible luciferase reporter construct assessed as fold change in ISG signalling at 20 uM incubated for 12 hrs by Quanti-luc reagent based assay relative to control; format: cell-based; conditions: filed as agonist
T1 sequence (Q86WV6 whole entry): as the sequence (Q86WV6 whole entry, looked up, stated change not applied) above

[26] = target: T1, Stimulator of interferon genes protein; experiment: Agonist activity at STING in cGAS knockout human THP-1 cells harboring IRF-inducible luciferase reporter construct assessed as increase in ISG signalling at 20 uM incubated for 12 hrs by Quanti-luc reagent based assay; format: cell-based; conditions: filed as agonist
[27] = target: T1, Stimulator of interferon genes protein; experiment: Agonist activity at STING in human THP-1 cells harboring IRF-inducible luciferase reporter construct assessed as increase in ISG signalling incubated for 12 hrs by Quanti-luc reagent based assay; format: cell-based
[28] = target: T2, Stimulator of interferon genes protein (Mus musculus) (UniProt Q3TBT3); experiment: Agonist activity at STING in mouse RAW264.7 cells harboring IRF-inducible luciferase reporter construct assessed as increase in ISG signalling at 20 uM incubated for 12 hrs by Quanti-luc reagent based assay; format: cell-based; conditions: filed as agonist
T2 sequence (whole entry): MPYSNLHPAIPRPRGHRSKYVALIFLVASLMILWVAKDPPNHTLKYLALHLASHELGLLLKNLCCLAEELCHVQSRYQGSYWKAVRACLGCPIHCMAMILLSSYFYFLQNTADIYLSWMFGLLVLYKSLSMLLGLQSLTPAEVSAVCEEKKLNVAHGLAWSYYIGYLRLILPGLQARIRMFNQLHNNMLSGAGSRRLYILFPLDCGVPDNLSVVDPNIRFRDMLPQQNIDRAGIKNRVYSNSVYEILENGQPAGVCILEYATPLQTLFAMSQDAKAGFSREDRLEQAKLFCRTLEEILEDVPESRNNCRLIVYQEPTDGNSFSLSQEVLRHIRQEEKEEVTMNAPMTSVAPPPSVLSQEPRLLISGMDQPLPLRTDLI

ΔTm [1]: 3.9 °C | AUC(0-inf) [2]: 9800 ng·h/mL | clearance [4]: 8.5 mL/min/kg | logP [5]: 1.5 | Vd [6]: 1.28 L/kg | half-life [7]: 1.65 h | Cmax [8]: 23300 ng/mL | ΔTm [9]: 9.1 °C | remaining at 24 h, 1 µM [10]: 100% | bioavailability [11]: 58% | solubility thermodynamic at 24 h [12]: 300 µg/mL (≈ 1020 µM) | Fu [13]: 0.19% | AUC(0-inf) [14]: 56800 ng·h/mL | Vdss [15]: 2.18 L/kg | Papp at 5 h [16]: 1.7 ×10⁻⁶ cm/s | CL/F [17]: 15.2 mL/min/kg | inhibition at 5 min, 10 µM [19]: 7.59% | half-life [20]: 1.71 h | remaining at 2 h, 1 µM [21]: 87% | ΔTm [22]: 23.3 °C | solubility thermodynamic at 24 h [23]: 6 µg/mL (≈ 20.4 µM) | fold change (FC) [25]: 32
SMILES: COc1cc2cc(C(=O)CCC(=O)O)sc2cc1OC
inhibition at 5 min, 10 µM [3]: 0.86% | Activity [18]: 5.5% | Activity [24]: 7.7%

ΔTm [1]: 4.7 °C | fold change (FC) [25]: 18
SMILES: CCC(CC(=O)c1cc2cc(OC)c(OC)cc2s1)C(=O)O (racemic)

SMILES: CCC(=O)C(C)CC(=O)c1cc2cc(OC)c(OC)cc2[se]1 (stereo not given)
ΔTm [1]: -0.2 °C | fold change (FC) [25]: 15

SMILES: COc1ccc2cc(C(=O)CC(C)C(=O)O)[se]c2c1 (racemic)
ΔTm [1]: -0.1 °C

ΔTm [1]: -0.1 °C
SMILES: CCC(CC(=O)c1cc2cc(OC)c(OC)cc2o1)C(=O)O (racemic)

SMILES: COc1cc2cc(C(=O)CC(C)C(N)=O)[se]c2cc1OC (racemic)
ΔTm [1]: -0.8 °C

SMILES: COc1ccc2[se]c(C(=O)CC(C)C(=O)O)cc2c1 (racemic)
ΔTm [1]: -0.3 °C

SMILES: COc1cc2cc(C(=O)CC(C(=O)O)C(C)C)[se]c2cc1OC (racemic)
ΔTm [1]: -1.9 °C | fold change (FC) [25]: 10

SMILES: CCCC(CC(=O)c1cc2cc(OC)c(OC)cc2[se]1)C(=O)O (racemic)
ΔTm [1]: -1.2 °C | fold change (FC) [25]: 14

SMILES: COc1cc2cc(C(=O)C3CC3C(=O)O)[se]c2cc1OC (racemic)
ΔTm [1]: 6.2 °C | fold change (FC) [25]: 7

SMILES: COc1cc2cc(C(=O)C3CCC3C(=O)O)[se]c2cc1OC (racemic)
ΔTm [1]: 9.1 °C | fold change (FC) [25]: 24

SMILES: COc1cc2cc(C(=O)CC(C)(C)C(=O)O)[se]c2cc1OC
ΔTm [1]: -1.5 °C | fold change (FC) [25]: 5

SMILES: COc1cc2cc(C(=O)CCC(=O)O)[se]c2cc1OC
ΔTm [1]: -1.1 °C | fold change (FC) [25]: 2

SMILES: CC(CC(=O)c1cc2cc3c(cc2[se]1)OCO3)C(=O)O (racemic)
ΔTm [1]: -0.5 °C

SMILES: CCC(CC(=O)c1cc2cc(OC)c(OC)cc2[se]1)C(=O)O (racemic)
ΔTm [1]: 4.5 °C | fold change (FC) [25]: 27

SMILES: COc1cc2cc(C(=O)CC(C)C(=O)O)[se]c2cc1OC (racemic)
ΔTm [1]: 2.7 °C | Activity [26]: Active | pEC50 [27]: 4.67 | Activity [28]: Active | fold change (FC) [25]: 15

SMILES: COCC(CC(=O)c1cc2cc(OC)c(OC)cc2[se]1)C(=O)O (racemic)
ΔTm [1]: 0.9 °C | fold change (FC) [25]: 7
